Data set [1] concerns the target T1, human placenta aldehyde reductase (Homo sapiens, UniProt P14550).
T1 construct: the fraction containing aldehyde reductase activity eluted by salt concentration gradient was dialyzed and used as aldehyde reductase enzyme standard; from tissue; host or cells: human placenta
T1 sequence (P14550 1-325): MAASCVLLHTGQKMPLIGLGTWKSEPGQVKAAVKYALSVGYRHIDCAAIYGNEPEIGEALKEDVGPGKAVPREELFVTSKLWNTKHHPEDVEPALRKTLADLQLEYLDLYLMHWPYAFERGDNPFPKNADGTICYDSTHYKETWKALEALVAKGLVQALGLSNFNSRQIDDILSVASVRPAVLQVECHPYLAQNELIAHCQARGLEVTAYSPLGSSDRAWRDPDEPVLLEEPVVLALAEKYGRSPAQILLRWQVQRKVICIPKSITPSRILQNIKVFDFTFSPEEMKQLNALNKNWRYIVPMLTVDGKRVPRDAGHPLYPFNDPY
The data set is described as follows: Aldehyde reductase of human origin inhibitory activity (specificity). Type of data set: biochemical. Particulars: 15 mM glucuronate, pH 7.0, read-out: 10 μM inhibition % HPALR. The method, then: (§1) That is, human placenta stored at -80° C. was homogenized in distilled water followed by centrifugation at 10,000 XG for 15 minutes. […] The dialysate was applied to DEAE-cellulose column. The fraction containing aldose reductase activity eluted by salt concentration gradient was dialyzed and used as aldose reductase enzyme standard. Furthermore, after fractionation with ammonium sulfate solution, the dialysate was applied to Red Sepharose CL-6B, the fraction containing aldehyde reductase activity eluted by salt concentration gradient was dialyzed and used as aldehyde reductase enzyme standard.
That is, the activity was determined in a manner similar to the case of determining aldose reductase activity, using 200 mM phosphate buffer (pH 7.0) prepared to contain 0.1 mM NADPH in a final concentration and 15 mM glucuronate as substrate.

Data set [2] addresses T2, human placenta aldose reductase (Homo sapiens, UniProt P15121).
T2 construct: The aldose reductase enzyme standard was prepared from human placenta; from tissue; host or cells: human placenta
The data set is described as follows: Aldose reductase of human origin inhibitory activity. Particulars: for IC50: d1-glyceraldehyde 3 mM, pH 6.2, 25° C., read-out: IC50 HPAR (human placenta aldose reductase; head prints HPAP); for Ratio HPALR/HPAR: ratio of IC50 aldehyde reductase to aldose reductase, human placenta. It is filed as biochemical. Here is the method: as §1
That is, 25 μl of the enzyme solution described above and 25 μl of a drug solution in 1% DMSO having various concentrations were added to 200 μl of 40 Mm phosphate buffer (pH 6.2) prepared to contain 0.4 M lithium sulfate and 0.1 mM NADPH (reduced nicotinamide adenine dinucleotide phosphate) in final concentrations and containing 3 mM d1-glyceraldehyde as substrate, respectively.

For data set [3], the system named is sorbitol in lens withdrawn from rat. The data set is described as follows: Activity for preventing accumulation of sorbitol in lens withdrawn from rat. It is filed as cell-based, SD rat. Particulars: 50 mM glucose, 10^-6 M test drug, 4 hours, 1% DMSO = 100%, read-out: Sorbitol Content (%). Here is the method:
2) Activity for preventing accumulation of sorbitol in lens withdrawn from rat
The lens withdrawn from SD rats of 7 to 8 weeks age was incubated in 2.0 ml of Kreb's solution (pH 7. 4) containing 50 mM glucose and 10^-6 M test drug for 4 hours. The sorbitol content formed in the tissue was assayed by the enzyme method of Bergmeyer et al. [cf., H. Y. Bergmeyer et al., Methods of Enzymatic Analysis, 3, 1323-1330, 19741 using SDH (Sorbitol dehydrogenase) and AND (β-nicotinamide adenine dinucleotide). The sorbitol content was made 100% when 1% DMSO as a solvent was added in place of the drug and the activity of the drug was determined.

A further data set addresses T3, aldose reductase (Sus scrofa, UniProt P80276).
T3 construct: porcine crystalline lens stored at -80° C. was homogenized in distilled water; from tissue; host or cells: porcine crystalline lens
The data set is described as follows: Aldose reductase inhibitory activity (porcine crystalline lens enzyme). Type of data set: biochemical. Here is the method: Aldose reductase enzyme standard was prepared from porcine crystalline lens by the method of Hayman et al. (cf., S. Hayman et al., Journal of Biological Chemistry, 240, 877-882, 1965). That is, porcine crystalline lens stored at -80° C. was homogenized in distilled water followed by centrifugation at 10,000 XG for 15 minutes. The supernatant was dissolved to make 40% ammonium sulfate solution. The supernatant centrifuged at 10,000 XG for further 10 minutes was dialyzed to 0.05 M sodium chloride solution overnight. The thus obtained dialysate was used as the enzyme standard.
The activity of aldose reductase was determined by the method of Hayman et al. supra. That is, 25 μl of the enzyme solution described above and […] of a drug solution in 1% DMSO having various concentrations were added to 200 μl of 40 mM phosphate buffer (pH 6.2) prepared to contain […] lithium sulfate and 0.1 MM NADPH (reduced nicotinamide adenine dinucleotide phosphate) in final concentrations and Containing 3 mM d1-glyceraldehyde as substrate, respectively. Thereafter, the mixture was reacted at 25° C. for 2 minutes and change in absorbance at 340 nm was determined using COBAS FARA II (Roche Co.).

The test system of data set [4] is tissue sorbitol in streptozotocin-induced diabetic rats. The data set is described as follows: Inhibitory activity of accumulation of tissue sorbitol in streptozotocin-induced diabetic rats. It is filed as in vivo, Sprague-Dawley rats. Particulars: 30 mg/kg oral 4, 8 and 24 hours after streptozotocin, control = 100%, Tukey's test *p < 0.05, **p < 0.01; for Accumulation of Tissue Sorbitol (%), Nerve: sciatic nerve. Here is the method: 4) Inhibitory activity of accumulation of tissue sorbitol in streptozatocini-induced diabetic rats.
Sprague-Dawley rats (male,6 weeks of age, one group composed of 5 to 6 rats), fasted overnight, were made diabetic by single intravenous injection of 60 mg/kg body weight of streptozotocin (SIGMA Co. ) , which had been freshly dissolved in normal saline solution.
The compound was orally administered in the form of 0.5% carboxymethylcellulose suspension in a dose of 30 mg/kg 4, 8 and 24 hours after the injection of streptozotocin. During the test, rats were free access to feed and water. Three hours after the final administration, the sorbitol contens in tissues (red blood cell, sciatic nerve, lens) Were determined by the enzyme method of Bergmeyer et al. [cf., H. Y. Bergmeyer et al., Methods of Enzymatic Analysis, 3, 1323-1330, 1974], using SDH (sorbitol dehydrogenase) and AND (β-nicotinamide adenine dinucleotide). The results are shown by percentage (%) when the value obtained with control group administered with 0.5% carboxymethylcellulose solution as a solvent instead of the compound was made 100%.

For another data set, the system named is ICR strain mice. The data set is described as follows: Safety test, single oral administration in mice with 14 days observation. It is filed as in vivo. Particulars: 300 mg/kg oral, male ICR mice. Here is the method: Next, safety of the compounds of the present invention was verified by the following test.
After normal ICR strain mice (male, 7 weeks age, 5 mice being into one group) was fasted for 18 hours, each compound (300 mg/kg) of Examples 1311, 132, 134, 156, 173, 179, 183 and 188 was orally administered in the form of 0.5% carboxymethylcellulose suspension. In the control group, 0.5% carboxymethylcellulose solution alone was orally administered. […] During the observation, mice were free access to feed and water.

The mark [5] stands for this setting: d1-glyceraldehyde 3 mM, pH 6.2, 25° C., 2 minutes.

Like-named read-outs stand apart in the source and are kept apart here.

Take `Cc1ccc2c(c1)N(Cc1nc3c(F)c(F)cc(F)c3s1)C(=O)C(CC(=O)O)S2` (stereo not drawn) [Example 165, 2-[4-(4,5,7-Trifluorobenzothiazol-2-yl)methyl-6-methyl-3,4-dihydro-3-oxo-2H-1,4-benzothiazin-2-yl]acetic acid]: the inhibition at 10 µM in data set [1] worked out at 32.9%. In addition, in data set [2], the IC50 was found to be 12 nM and the “Ratio HPALR/HPAR” value was over 833.
For `O=C(O)CC1Sc2ccccc2N(Cc2nc3c(F)c(F)ccc3s2)C1=O` (stereo not drawn) [Example 189, 2-[4-(4,5-Difluorobenzothiazol-2-yl)methyl-3,4-dihydro-3-oxo-2H-1,4-benzothiazin-2-yl]acetic acid], the activity at 1 µM in data set [3] was determined as 37%. At aldose reductase (setting [5]), the IC50 came to 9.9 nM. In addition, in data set [4], the “Accumulation of Tissue Sorbitol (%), Lens” value (“Accumulation … (%), Lens” below) was 30.7%; the “Accumulation of Tissue Sorbitol (%), Red Blood Cell” value (“Accumulation … (%), Red Blood Cell” below) amounted to 16.6%; the “Accumulation of Tissue Sorbitol (%), Nerve” value (from here on “Accumulation … (%), Nerve”) is listed as 1.1%. Further, the inhibition at 10 µM in data set [1] amounted to 18.5%. In data set [2], the IC50 is 9.3 nM and the “Ratio HPALR/HPAR” value is over 1075.
Take `O=C(O)CC1Sc2cc(F)ccc2N(Cc2nc3c(F)c(F)cc(F)c3s2)C1=O` (stereo not drawn) [Example 188, 2-[4-(4,5,7-Trifluorobenzothiazol-2-yl)methyl-7-fluoro-3,4-dihydro-3-oxo-2H-1,4-benzothiazin-2-yl]acetic acid]: in the data set with ICR strain mice, the body weight entry is reported as “progressed as in the control group” and the mice dead entry was “none”. Besides, in data set [3], the activity at 1 µM amounted to 38%. Moreover, the IC50 against aldose reductase (setting [5]) was 9.7 nM. Further, in data set [4], the “Accumulation … (%), Lens” value worked out at 32.5%; the “Accumulation … (%), Red Blood Cell” value stood at 15.7%; the “Accumulation … (%), Nerve” value stood at 0.0%. Moreover, in data set [1], the inhibition at 10 µM was 19.1%. In data set [2], the IC50 was 14 nM and the “Ratio HPALR/HPAR” value was over 714.
For `O=C(O)CC1Sc2c(F)cccc2N(Cc2nc3c(Cl)c(Cl)ccc3s2)C1=O` (stereo not drawn) [Example 167, 2-[4-(4,5-Dichlorobenzothiazol-2-yl)methyl-8-fluoro-3,4-dihydro-3-oxo-2H-1,4-benzothiazin-2-yl]acetic acid], the inhibition at 10 µM in data set [1] stood at 28.6%. In data set [2], the IC50 amounted to 13 nM and the “Ratio HPALR/HPAR” value is recorded as over 769.
Consider `CC(C)c1cccc2c1OC(C(C)C)C(=S)N2CC(=O)O` (stereo not drawn) [Compound A, 3,4-dihydro-2,8-diisopropyl-3-thioxo-2H-1,4-benzoxazine-4-acetic acid, reference compound], for which the activity at 1 µM in data set [3] was determined as 56%. On aldose reductase (setting [5]), this molecule displayed an IC50 of 21 nM. In data set [4], the “Accumulation … (%), Lens” value came out at 87.3%; the “Accumulation … (%), Red Blood Cell” value is given as 53.7%; the “Accumulation … (%), Nerve” value amounted to 54.9%.
`O=C(O)CC1Sc2ccccc2N(Cc2nc3c(F)c(F)cc(F)c3s2)C1=O` (stereo not drawn) [Example 183, 2-[4-(4,5,7-Trifluorobenzothiazol-2-yl)methyl-3,4-dihydro-3-oxo-2H-1,4-benzothiazin-2-yl]acetic acid]: in the data set with ICR strain mice, the body weight entry is on record as “progressed as in the control group” and the mice dead result was “none”. In data set [3], the activity at 1 µM came out at 29%. In addition, the IC50 at aldose reductase (read-out: IC50 (50% inhibitory concentration, aldose reductase), d1-glyceraldehyde 3 mM, pH 6.2, 25° C., 2 minutes) was 9.5 nM. For the same molecule, in data set [4], the “Accumulation … (%), Lens” value came to 39.1%; the “Accumulation … (%), Red Blood Cell” value came to 25.8%; the “Accumulation … (%), Nerve” value was found to be 3.1%. In addition, the inhibition at 10 µM in data set [1] worked out at 19.3%. Also, in data set [2], the IC50 stood at 10 nM and the “Ratio HPALR/HPAR” value is given as over 1000.

For the origin of these results see patent US5252571A, “1,4-benzothiazine-2-acetic acid derivatives” (Sapporo Breweries Limited, priority 1990, dated 1993).
